Data reported in US9018388B2, “Pesticidal compositions and processes related thereto” (Dow AgroSciences LLC, priority 2012, dated 2015).

Columns and labels:
[1] = tested on: Corn Earworm (CEW) (Helicoverpa zea); assay: Bioassay on corn earworm (CEW), 128-well diet tray assay; assay type: in vivo; settings: Helicoverpa zea; Corn earworm, 50 μg/cm^2; read-out: % Mortality CEW 50 μg/cm^2
Protocol: (§1) Bioassays on Beet Armyworm (“BAW”) and Corn Earworm (“CEW”)
(§2) Certain molecules disclosed in this document were tested against BAW and CEW using procedures described in the following examples. In the reporting of the results, the “BAW & CEW Rating Table” was used (See Table Section).
Bioassays on CEW (Helicoverpa zea)
Bioassays on CEW were conducted using a 128-well diet tray assay. One to five second instar CEW larvae were placed in each well (3 mL) of the diet tray that had been previously filled with 1 mL of artificial diet to which 50 μg/cm^2 of the test compound (dissolved in 50 μL of 90:10 acetone-water mixture) had been applied (to each of eight wells) and then allowed to dry. Trays were covered with a clear self-adhesive cover and held at 25° C., 14:10 light-dark for five to seven days. Percent mortality was recorded for the larvae in each well; activity in the eight wells was then averaged. The results are indicated in the table entitled “Table 5: Biological Results” (See Table Section).

[2] = tested on: Beet Armyworm (BAW) (Spodoptera exigua); assay: Bioassay on beet armyworm (BAW), 128-well diet tray assay; assay type: in vivo; settings: Spodoptera exigua; Beet armyworm, 50 μg/cm^2; read-out: % Mortality BAW 50 μg/cm^2
Protocol: as §1, §2
Bioassays on BAW (Spodoptera exigua)
Bioassays on BAW were conducted using a 128-well diet tray assay. One to five second instar BAW larvae were placed in each well (3 mL) of the diet tray that had been previously filled with 1 mL of artificial diet to which 50 μg/cm^2 of the test compound (dissolved in 50 μL of 90:10 acetone-water mixture) had been applied (to each of eight wells) and then allowed to dry. Trays were covered with a clear self-adhesive cover and held at 25° C., 14:10 light-dark for five to seven days. Percent mortality was recorded for the larvae in each well; activity in the eight wells was then averaged. The results are indicated in the table entitled “Table 5: Biological Results” (See Table Section).

SMILES	pest or weed control at 50 µg/cm2, 50 µg/cm2 [1]	pest or weed control at 50 µg/cm2, 50 µg/cm2 [2]
CCc1ccccc1N1CS/C1=N\N=C\c1ccc(-c2ncn(-c3ccc(OC(F)(F)F)cc3)n2)cc1 [Compound 254C]	50 to 100%	50 to 100%
COc1ccc(N2/C(=N/N=C/c3ccc(-c4ncn(-c5ccc(OC(F)(F)F)cc5)n4)cc3)SCCC2C)c(C)c1 (stereo not drawn) [Compound 219C]	50 to 100%	50 to 100%
FC(F)Oc1ccccc1N1CCS/C1=N\N=C\c1ccc(-c2ncn(-c3ccc(OC(F)(F)F)cc3)n2)cc1 [Compound 152C]	50 to 100%	50 to 100%
CC(C)(C)c1ccccc1N1C(=O)CCS/C1=N\N=C\c1ccc(-c2ncn(-c3ccc(OC(F)(F)F)cc3)n2)cc1 [Compound 232C]	50 to 100%	50 to 100%
Cc1cccc(C)c1/N=C(/N/N=C/c1ccc(-c2ncn(-c3ccc(OC(F)(F)F)cc3)n2)cc1)SCc1ccc(F)cc1F [Compound 7C]	50 to 100%	
CCc1cccc(C)c1N1CCS/C1=N\N=C\c1ccc(-c2ncn(-c3ccc(OC(F)(F)F)cc3)n2)cc1 [Compound 136C]	50 to 100%	50 to 100%
COc1cc(C)c(/N=C(/N/N=C/c2ccc(-c3ncn(-c4ccc(OC(F)(F)F)cc4)n3)cc2)SCOC(=O)C(C)OCC(F)(F)F)c(C)c1 (stereo not drawn) [Compound 38C]	50 to 100%	50 to 100%
COc1cc(C)c(-n2c(C(=O)O)cs/c2=N\N=C\c2ccc(-c3ncn(-c4ccc(OC(F)(F)F)cc4)n3)cc2)c(C)c1 [Compound 80C]	50 to 100%	50 to 100%
CCCS/C(=N\c1c(Cl)cccc1Cl)N/N=C/c1ccc(-c2ncn(-c3ccc(OC(F)(F)F)cc3)n2)cc1 [Compound 3C]	50 to 100%	50 to 100%
Cc1cnccc1N1C(=O)CS/C1=N\N=C\c1ccc(-c2ncn(-c3ccc(OC(F)(F)F)cc3)n2)cc1 [Compound 118C]	50 to 100%	50 to 100%
FC(F)(F)Oc1ccc(-n2cnc(-c3ccc(/C=N/N=C4\SCCN4c4ccccc4-c4ccccc4)cc3)n2)cc1 [Compound 144C]	50 to 100%	50 to 100%
CC(C)c1ccccc1N1CCS/C1=N\N=C\c1ccc(-c2ncn(-c3ccc(C(F)(F)F)cc3)n2)cc1 [Compound 134C]	50 to 100%	50 to 100%
O=C1CCS/C(=N\N=C\c2ccc(-c3ncn(-c4ccc(OC(F)(F)F)cc4)n3)cc2)N1c1c(F)cccc1F [Compound 226C]	50 to 100%	50 to 100%
CN(C)c1cccc(N2C(=O)CS/C2=N\N=C\c2ccc(-c3ncn(-c4ccc(OC(F)(F)F)cc4)n3)cc2)c1 [Compound 97C]	50 to 100%	50 to 100%
COc1ccc(N2C(=O)CS/C2=N\N=C\c2ccc(-c3ncn(-c4ccc(OC(F)(F)F)cc4)n3)cc2)cc1 [Compound 115C]		0 to 50%
CCC(C)c1ccccc1N1/C(=N/N=C/c2ccc(-c3ncn(-c4ccc(OC(F)(F)F)cc4)n3)cc2)SCCC1C (stereo not drawn) [Compound 220C]	50 to 100%	50 to 100%
COc1cc(C)c(/N=C(\N/N=C/c2ccc(-c3ncn(-c4ccc(C(F)(F)F)cc4)n3)cc2)SCOC(=O)C(C)C)c(C)c1 [Compound 46C]	50 to 100%	50 to 100%
Cc1cccc(C)c1/N=C(/N/N=C/c1ccc(-c2ncn(-c3ccc(OC(F)(F)F)cc3)n2)cc1)SCOC(=O)C(C)C [Compound 25C]	50 to 100%	50 to 100%
Cc1cccnc1N1C(=O)CS/C1=N\N=C\c1ccc(-c2ncn(-c3ccc(OC(F)(F)F)cc3)n2)cc1 [Compound 117C]	50 to 100%	50 to 100%
Cc1cs/c(=N\N=C\c2ccc(-c3ncn(-c4ccc(OC(F)(F)F)cc4)n3)cc2)n1-c1c(Cl)cccc1C(F)(F)F [Compound 169C]	50 to 100%	50 to 100%
COc1cc(C)c(/N=C(\N/N=C/c2ccc(-c3ncn(-c4ccc(C(F)(F)F)cc4)n3)cc2)SCOC(=O)CNC(=O)OCc2ccccc2)c(C)c1 [Compound 45C]	50 to 100%	50 to 100%

SMILES	pest or weed control at 50 µg/cm2, 50 µg/cm2 [1]	pest or weed control at 50 µg/cm2, 50 µg/cm2 [2]
COc1ccccc1N1CCCS/C1=N\N=C\c1ccc(-c2ncn(-c3ccc(OC(F)(F)F)cc3)n2)cc1 [Compound 191C]	50 to 100%	50 to 100%
COC(=O)C1CC(c2ccc(/C=N/N=C3\SCC(=O)N3c3c(Cl)cccc3Cl)cc2)=NN1c1ccc(OC(F)(F)F)cc1 (stereo not drawn) [Compound 109C]	50 to 100%	50 to 100%
CC(C)c1ccccc1N1CCCS/C1=N\N=C\c1ccc(-c2ncn(-c3ccc(OC(F)(F)F)cc3)n2)cc1 [Compound 177C]	50 to 100%	50 to 100%
Cc1cccc(C)c1/N=C(/N/N=C/c1ccc(-c2ncn(-c3ccc(OC(F)(F)F)cc3)n2)cc1)SCC(=O)NCCCN(C)C(=O)OC(C)(C)C [Compound 61C]	50 to 100%	50 to 100%
Cc1cccc(C)c1/N=C(/N/N=C/c1ccc(-c2ncn(-c3ccc(OC(F)(F)F)cc3)n2)cc1)SCC(=O)NCC(N)C(=O)O (stereo not drawn) [Compound 63C]	50 to 100%	50 to 100%
CC1CCS/C(=N\N=C\c2ccc(-c3ncn(-c4ccc(OC(F)(F)F)cc4)n3)cc2)N1c1ccccc1C(C)(C)C (stereo not drawn) [Compound 222C]	50 to 100%	50 to 100%
O=C1CCS/C(=N\N=C\c2ccc(-c3ncn(-c4ccc(OC(F)(F)F)cc4)n3)cc2)N1c1c(Cl)cccc1C(F)(F)F [Compound 228C]	50 to 100%	50 to 100%
CCc1cccnc1N1C(=O)CS/C1=N\N=C\c1ccc(-c2ncn(-c3ccc(OC(F)(F)F)cc3)n2)cc1 [Compound 123C]	50 to 100%	50 to 100%
CC1CSC(=NN=Cc2ccc(-c3ncn(-c4ccc(OC(F)(F)F)cc4)n3)cc2)N(c2ccccc2C(C)C)C1 (stereo in doubt) [Compound 178C, (Z)-3-(2-isopropylphenyl)-5-methyl-2-((E)-(4-(1-(4-(trifluoromethoxy)phenyl)-1H-1,2,4-triazol-3-yl)benzylidene)hydrazono)-1,3-thiazinane]	50 to 100%	50 to 100%
FC(F)(F)Oc1ccc(-n2cnc(-c3ccc(/C=N/N=C4\SCN4c4c(Cl)cccc4Cl)cc3)n2)cc1 [Compound 244C]	50 to 100%	50 to 100%
Cc1ccccc1N1CCS/C1=N\N=C\c1ccc(-c2ncn(-c3ccc(OC(F)(F)F)cc3)n2)cc1 [Compound 141C]	50 to 100%	50 to 100%
CC(/N=C(/N/N=C/c1ccc(-c2ncn(-c3ccc(OC(F)(F)F)cc3)n2)cc1)SCC(=O)O)c1ccccc1 (stereo not drawn) [Compound 54C]	50 to 100%	50 to 100%
Cc1cccc(C)c1/N=C(/N/N=C/c1ccc(-c2ncn(-c3ccc(OC(F)(F)F)cc3)n2)cc1)SCC(=O)NCC(C)C [Compound 55C]	50 to 100%	50 to 100%
CCOc1ccccc1N1CCCS/C1=N\N=C\c1ccc(-c2ncn(-c3ccc(OC(F)(F)F)cc3)n2)cc1 [Compound 208C]	50 to 100%	50 to 100%
Cc1cccnc1N1CCCS/C1=N\N=C\c1ccc(-c2ncn(-c3ccc(OC(F)(F)F)cc3)n2)cc1 [Compound 198C]	50 to 100%	50 to 100%
CC(C)=Cc1ccccc1N1CCCS/C1=N\N=C\c1ccc(-c2ncn(-c3ccc(OC(F)(F)F)cc3)n2)cc1 [Compound 197C]	50 to 100%	50 to 100%
Fc1cccc(Cl)c1N1CCS/C1=N\N=C\c1ccc(-c2ncn(-c3ccc(OC(F)(F)F)cc3)n2)cc1 [Compound 143C]	50 to 100%	50 to 100%
CCC1CS/C(=N\N=C\c2ccc(-c3ncn(-c4ccc(OC(F)(F)F)cc4)n3)cc2)N1c1ccccc1C (stereo not drawn) [Compound 166C]	50 to 100%	50 to 100%
FC(F)(F)Oc1ccc(-n2cnc(-c3ccc(/C=N/N=C4\SCCN4c4ccccc4OC(F)(F)F)cc3)n2)cc1 [Compound 153C]	50 to 100%	
CCOc1cccc(OCC)c1N1C(=O)CS/C1=N\N=C\c1ccc(-c2ncn(-c3ccc(OC(F)(F)F)cc3)n2)cc1 [Compound 98C]		50 to 100%
